Data taken from a compilation of properties of binary mixtures (doi:10.1016/j.molliq.2016.12.089).

Experiment: xn = mol fraction of the nth substance listed
Conditions: 101 kPa

Q: For O + C[N+](C)(CCCS(=O)(=O)O)C1CCCCC1.Cc1ccc(S(=O)(=O)[O-])cc1, which viscosity (308.15 K, x2 = 0) is on record?
A: 0.7218 mPa·s

Q: And the viscosity (313.15 K, x2 = 0)?
A: 0.6564 mPa·s

Q: And the viscosity (318.15 K, x2 = 0)?
A: 0.6071 mPa·s

Q: And the viscosity (323.15 K, x2 = 0)?
A: 0.5538 mPa·s

Q: What about the viscosity (328.15 K, x2 = 0) of the same compound?
A: 0.5064 mPa·s

Q: For C[N+](C)(CCCS(=O)(=O)O)C1CCCCC1.Cc1ccc(S(=O)(=O)[O-])cc1 + O, which viscosity (303.15 K, x1 = 0.0106) is on record?
A: 1.404 mPa·s

Q: And the viscosity (303.15 K, x1 = 0.0277)?
A: 2.684 mPa·s

Q: And the viscosity (303.15 K, x1 = 0.0603)?
A: 7.903 mPa·s

Q: What about the viscosity (303.15 K, x1 = 0.1458) of the same compound?
A: 78.86 mPa·s

Q: What about the viscosity (308.15 K, x1 = 0.0106) of the same compound?
A: 1.257 mPa·s

Q: And the viscosity (308.15 K, x1 = 0.0277)?
A: 2.406 mPa·s

Q: What about the viscosity (308.15 K, x1 = 0.1458) of the same compound?
A: 62.58 mPa·s

Q: What about the viscosity (313.15 K, x1 = 0.0277) of the same compound?
A: 2.146 mPa·s

Q: What about the viscosity (313.15 K, x1 = 0.1458) of the same compound?
A: 48.83 mPa·s

Q: And the viscosity (313.15 K, x1 = 1)?
A: 32650 mPa·s

Q: And the viscosity (318.15 K, x1 = 0.0277)?
A: 1.943 mPa·s

Q: And the viscosity (318.15 K, x1 = 0.0603)?
A: 5.145 mPa·s

Q: And the viscosity (318.15 K, x1 = 1)?
A: 17830 mPa·s

Q: What about the viscosity (323.15 K, x1 = 0.0106) of the same compound?
A: 0.9115 mPa·s

Q: What about the viscosity (323.15 K, x1 = 0.0277) of the same compound?
A: 1.789 mPa·s

Q: And the viscosity (323.15 K, x1 = 0.0603)?
A: 4.579 mPa·s

Q: And the viscosity (323.15 K, x1 = 0.1458)?
A: 31.56 mPa·s

Q: What about the viscosity (323.15 K, x1 = 1) of the same compound?
A: 10187 mPa·s

Q: What about the viscosity (328.15 K, x1 = 0.1458) of the same compound?
A: 25.56 mPa·s

Q: And the viscosity (328.15 K, x1 = 1)?
A: 6293 mPa·s
